Measured values published in patent US8440633B2, “Anthelmintic combination” (AH USA 42 LLC, priority 2007, dated 2013).

Tests used:
Format in all cases: in vivo
[1] = test system: Trichostrongylus colubriformis; assay: Total worm count, resistant strains in sheep (Example 2); conditions: for % efficacy (arithmetic mean): doses as the 4th table, Day 15
Description: (§1) Sheep were artificially infected with L3 larvae of Teladorsagia (Ostertagia) circumcincta and Trichostrongylus colubriformis and efficacy was measured by total worm counts in the treatment group compared to the control group following administration of treatment.
(§2) All study animals were necropsied on Day 15 after treatment. Abomasa and small intestines were collected for worm recovery and total worm count estimations.

[2] = test system: Teladorsagia trifurcata; assay: as above; conditions: for % efficacy (arithmetic mean): doses as the 4th table, Day 15, NEG = negative efficacy, mean count higher than control
Description: as §1, §2

[3] = test system: Teladorsagia circumcincta; assay: as above; conditions: for % efficacy (arithmetic mean): doses as the 4th table, Day 15, NEG = negative efficacy, mean count higher than control
Description: as §1, §2

[4] = test system: Trich. colubriformis; assay: Total worm count, resistant strains in sheep (Example 3); conditions: for % efficacy (arithmetic mean): doses as the 6th table, Day 15
Description: (§3) Sheep were artificially infected with infective L3 larvae in a mixed culture containing Haemonchus contortus, Teladorsagia spp and Trichostrongylus spp, and efficacy was measured by total worm counts in the treatment group compared to the control group following administration of treatment. The animals were treated as outlined below with the commercially available reference products included to confirm the resistance profile of the above parasites.
as §2

[5] = test system: Haemonchus contortus; assay: as above; conditions: for % efficacy (arithmetic mean): doses as the 6th table, Day 15
Description: as §3, §2

[6] = test system: Teladorsagia spp (total); assay: as above; conditions: for % efficacy (arithmetic mean): doses as the 6th table, Day 15, NEG = negative efficacy
Description: as §3, §2

[7] = Example 2, resistant Trichostrongylus colubriformis
[8] = Example 2, resistant Trichostrongylus colubriformis, per os once Day 0 (2-DOPH 2 + abamectin 0.2; albendazole 3.8; levamisole 8; ivermectin 0.2 mg/kg), necropsy Day 15
[9] = Example 2, Teladorsagia trifurcata
[10] = Example 2, Teladorsagia trifurcata, per os once Day 0 (2-DOPH 2 + abamectin 0.2; albendazole 3.8; levamisole 8; ivermectin 0.2 mg/kg), necropsy Day 15
[11] = Example 2, resistant Teladorsagia circumcincta
[12] = Example 2, resistant Teladorsagia circumcincta, per os once Day 0 (2-DOPH 2 + abamectin 0.2; albendazole 3.8; levamisole 8; ivermectin 0.2 mg/kg), necropsy Day 15
[13] = Example 3, resistant Trich. colubriformis
[14] = Example 3, resistant Trich. colubriformis, per os once Day 0 (2-DOPH 2 + abamectin 0.2; albendazole 3.8; levamisole 8; ivermectin 0.2 mg/kg), necropsy Day 15
[15] = Example 3, resistant Haemonchus contortus
[16] = Example 3, resistant Haemonchus contortus, per os once Day 0 (2-DOPH 2 + abamectin 0.2; albendazole 3.8; levamisole 8; ivermectin 0.2 mg/kg), necropsy Day 15
[17] = Example 3, resistant Teladorsagia spp (total)
[18] = Example 3, resistant Teladorsagia spp (total), per os once Day 0 (2-DOPH 2 + abamectin 0.2; albendazole 3.8; levamisole 8; ivermectin 0.2 mg/kg), necropsy Day 15

Compound	% efficacy (arithmetic mean) [1, 7]	% efficacy (arithmetic mean) [2, 9]	% efficacy (arithmetic mean) [3, 11]	% efficacy (arithmetic mean) [4, 13]	% efficacy (arithmetic mean) [5, 15]	% efficacy (arithmetic mean) [6, 17]	Arithmetic Mean (total worm count) ([1]; in vivo)	Prevalence (total worm count) ([1]; in vivo)	Range (total worm count) ([1]; in vivo)	Arithmetic Mean (total worm count) ([2]; in vivo)	Prevalence (total worm count) ([2]; in vivo)	Range (total worm count) ([2]; in vivo)	Arithmetic Mean (total worm count) ([3]; in vivo)	Prevalence (total worm count) ([3]; in vivo)	Range (total worm count) ([3]; in vivo)	Arithmetic Mean (total worm count) ([4]; in vivo)	Prevalence (total worm count) ([4]; in vivo)	Range (total worm count) ([4]; in vivo)	Arithmetic Mean (total worm count) ([5]; in vivo)	Prevalence (total worm count) ([5]; in vivo)	other results
c1ccc([C@H]2CN3CCSC3=N2)cc1 [Levamisole]	84.31%	84.08%	82.67%	15.34%	99.76%	96.31%	–	–	–	–	–	–	–	–	–	–	–	–	–	–	Arithmetic Mean (total worm count) [1, 8]: 652.6; Prevalence (total worm count) [1, 8]: 9/9; Range (total worm count) [1, 8]: 300-1500; Arithmetic Mean (total worm count) [2, 10]: 36.7; Prevalence (total worm count) [2, 10]: 4/9; Range (total worm count) [2, 10]: 0-180; Arithmetic Mean (total worm count) [3, 12]: 292.8; Prevalence (total worm count) [3, 12]: 7/9; Range (total worm count) [3, 12]: 0-1020; Arithmetic Mean (total worm count) [4, 14]: 4320.7; Prevalence (total worm count) [4, 14]: 10/10; Range (total worm count) [4, 14]: 2120-5800; Arithmetic Mean (total worm count) [5, 16]: 2.0; Prevalence (total worm count) [5, 16]: 1/10; Range (total worm count) [5, 16]: 0-20; Arithmetic Mean (total worm count) [6, 18]: 52.0; Prevalence (total worm count) [6, 18]: 8/10; Range (total worm count) [6, 18]: 0-160
CCCSc1ccc2nc(NC(=O)OC)[nH]c2c1 [Albendazole]	56.44%	NEG^	NEG^	25.00%	80.57%	58.16%	1812.0	10/10	1320-2660	281.6	7/10	0-712	2184.4	10/10	80-3708	3828.0	10/10	2600-5160	164.0	8/10	Range (total worm count) ([5]; in vivo): 0-320; Arithmetic Mean (total worm count) ([6]; in vivo): 590.0; Prevalence (total worm count) ([6]; in vivo): 10/10; Range (total worm count) ([6]; in vivo): 160-1200
Ivermectin	55.29%	15.49%	NEG^	11.63%	47.63%	NEG	1860.0	10/10	400-4060	194.8	7/10	0-459	2093.2	10/10	680-3600	4510.0	10/10	3140-5920	442.0	8/10	% efficacy (arithmetic mean) ([3]; Example 2, resistant Teladorsagia circumcincta, listed as ivermectin): zero; Range (total worm count) ([5]; in vivo): 0-940; Arithmetic Mean (total worm count) ([6]; in vivo): 1680.0; Prevalence (total worm count) ([6]; in vivo): 10/10; Range (total worm count) ([6]; in vivo): 280-3800
